For assay [1], the system named is BRAF-MEK1. Nature of the assay: BRAF-MEK TR-FRET assay, stabilization of MEK1 and BRAF interaction. The format is binding. The note with it: 4 nM BRAF, 10 nM MEK, 100 μM ATP, 1 hr at 25° C., read-out: BRAF-MEK TR-FRET Assay (EC50, fold stabilization). An excerpt:
Protein expression and purification: BRAF (445-723) with N-term His-tag and C-term StrepII tag was expressed using the Expi293 system (ThermoFisher) and purified using Strep-Tactin® XT-Superflow (IBA) chromatography. ERK1 (full-length) with N-term His-tag was expressed in Rosetta DE3 cells (Millipore) and purified using HisTrap HP (Cytiva) and Superdex 200 (Cytiva) column chromatography. Full-length MEK1 for TR-FRET assays with N-term His-tag was expressed in BL21DE3 cells (ThermoFisher) and purified using HisTrap HP (Cytiva) and Superdex 200 (Cytiva) column chromatography.
Efficacy of exemplary compounds in stabilization of MEK1 and BRAF interaction: Compound stabilization of BRAF-MEK interaction was evaluated using TR-FRET (Time Resolved Fluorescence Energy Transfer). The FRET assay consisted of His-tagged MEK1 (produced in-house), GST-tagged BRAF (SignalChem, B08-11G), Anti His-Tb Cryptate donor, and Anti GST-XL665 acceptor fluorophores (PerkinElmer) to generate FRET signal upon BRAF-MEK1 binding. Compounds were prepared from DMSO stocks in assay buffer (50 mM Tris pH 7.5, 150 mM NaCl, 1 mM DTT, 0.05% Tween-20, 5 mM MgCl2, and 100 μM ATP) and incubated with 4 nM BRAF and 10 nM MEK for 1 hr at 25° C. 1 ng Anti His-Tb Cryptate/20 ng Anti GST-XL665 premix was then added and incubated for 1 hr at 25° C. TR-FRET was measured using Cytation5 microplate reader (Agilent) using Ex/Em=340/620 nm and Ex/Em=340/665 nm to determine the FRET ratio. Fold stabilization was calculated as FRET signal of treated well/DMSO control. Fold stabilization as a function of compound concentration from 2 replicate wells was fit with a 4-parameter logistic curve equation using GraphPad Prism or CDD Vault to derive EC50 values.
In this table, for the BRAF ADP Glo kinase assay, “A” indicates IC50 of less than 5 nM; “B” indicates IC50 of between 5 nM to 50 nM; and “C” indicates IC50 of between 50 nM to 500 nM. “D” indicates IC50 of greater than 500 nM. For the BRAF-MEK TR-FRET assay, “A” indicates EC50 of less than 50 nM; “B” indicates EC50 of between 50 nM to 200 nM; and “C” indicates EC50 of between 200 nM to 1 μM. “D′” indicates EC50 of greater than 1 μM. For the AlphaLisa P-ERK assay, “A” indicates IC50 of less than 1 nM; “B” indicates IC50 of between 1 nM to 10 nM; and “C” indicates IC50 of between 10 nM to 100 nM. “D” indicates IC50 of greater than 100 nM. For the cell viability assay, “A” indicates IC50 of less than 1 nM; “B” indicates IC50 of between 1 nM to 10 nM; and “C” indicates IC50 of between 10 nM to 100 nM. “D” indicates IC50 of greater than 100 nM.

Assay [2] has as its target T1, MEK1 (Homo sapiens, UniProt Q02750).
T1 construct: purchased SignalChem M02-14H
Nature of the assay: MEK1 kinase cascade assay (ADP-Glo), inhibition of MEK1 kinase activity. The class given is biochemical. The note with it: 25 nM BRAF, 6.25 nM MEK1, 0.5 μM ERK, 1 mM ATP; 20 min preincubation, 1 hr at 25° C.; read-out: BRAF ADP Glo kinase assay V3 (IC50). The procedure, abridged:
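Compounds were preincubated 20 mins at 25° C with 25 nM BRAF(445-723) in 10 mM HEPES pH 7.5, 5 mM MgCl2, 2 mM CHAPS, 1 mM DTT, then 6.25 nM MEK1, 0.5 μM ERK1 and 1 mM ATP were added for 1 hr at 25° C, with 1% DMSO. ADP-Glo luminescence was normalized to DMSO and 1 μM Trametinib; IC50 came from 4-parameter fits of duplicates.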

Structures are written as SMILES. Where two headings read alike, the source gives them in different places.

T1 sequence (Q02750 whole entry): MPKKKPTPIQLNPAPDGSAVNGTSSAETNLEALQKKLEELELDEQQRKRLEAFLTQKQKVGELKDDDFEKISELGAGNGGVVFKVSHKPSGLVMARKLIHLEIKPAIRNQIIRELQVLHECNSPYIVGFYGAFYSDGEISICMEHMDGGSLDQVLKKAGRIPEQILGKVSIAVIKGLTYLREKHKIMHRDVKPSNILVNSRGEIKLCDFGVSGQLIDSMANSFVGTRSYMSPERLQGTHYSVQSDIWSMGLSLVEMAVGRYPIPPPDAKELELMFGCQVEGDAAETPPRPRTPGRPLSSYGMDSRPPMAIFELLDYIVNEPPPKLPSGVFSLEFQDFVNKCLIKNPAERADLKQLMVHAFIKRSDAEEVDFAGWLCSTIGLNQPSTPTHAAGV
T1 sequence (P15056 445-723 partner limits assumed): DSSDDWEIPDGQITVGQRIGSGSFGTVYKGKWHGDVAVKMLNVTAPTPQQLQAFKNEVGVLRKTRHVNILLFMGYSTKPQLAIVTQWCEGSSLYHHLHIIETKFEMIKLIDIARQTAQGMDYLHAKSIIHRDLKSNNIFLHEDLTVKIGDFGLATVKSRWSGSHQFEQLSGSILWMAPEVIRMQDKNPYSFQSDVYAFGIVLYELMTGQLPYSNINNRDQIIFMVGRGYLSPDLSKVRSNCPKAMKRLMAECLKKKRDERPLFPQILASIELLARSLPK

As a reminder, the IC50 is the concentration that gives 50% inhibition. For `CNS(=O)(=O)Nc1cccc(CN2Cc3ccc(Oc4ncco4)c(F)c3OC2=O)c1F` [Compound 91, 8-fluoro-3-{[2-fluoro-3-(methylaminosulfonylamino)phenyl]methyl}-7-(1,3-oxazol-2-yloxy)-3,4-dihydro-2H-1,3-benzoxazin-2-one], the EC50 in assay [1] was in the range of 200 to 1000 nM. Also, the concentration for half-maximal inhibition (IC50) in assay [2] is < 5 nM.

For `CNS(=O)(=O)Nc1nccc(CN2C(=O)Oc3cc(Oc4cccnn4)cnc3[C@H]2C)c1F` (stereo in doubt) [Compound 192, 3-{[3-fluoro-2-(methylaminosulfonylamino)-4 pyridyl]methyl}-4-methyl-7-(3-pyridazinyloxy)-3,4-dihydro-2H-1-oxa-3,5 diazanaphthalen-2-one], in assay [1] (60 min), the EC50 is 200 to 1000 nM. The half-maximal inhibitory concentration (IC50) in assay [2] lay within 5 to 50 nM.

With `CNS(=O)(=O)Nc1cccc(CN2C(=O)Oc3cc(OC(=O)N(C)C)ccc3[C@@H]2C)c1F` [Compound 152, 3-(2-fluoro-3-((N-methylsulfamoyl)amino)benzyl)-4-methyl-2-oxo-3,4-dihydro-2H-benzo[e][1,3]oxazin-7-yl dimethylcarbamate], in assay [1], the EC50 was 200 to 1000 nM. Besides, the IC50 in assay [2] was 5 to 50 nM.

On to `CNS(=O)(=O)Nc1cccc(CN2C(=O)Oc3cc(OC(=O)N(C)C)ccc3C23CNC3)c1F` [Compound 49], for which the EC50 in assay [1] was in the range of 200 to 1000 nM. Further, the IC50 in assay [2] was in the range of 5 to 50 nM.

Consider `CNS(=O)(=O)Nc1cccc(CN2Cc3cc(F)c(Oc4ncccn4)cc3OC2=O)c1F` [Compound 83, 6-fluoro-3-{[2-fluoro-3-(methylaminosulfonylamino)phenyl]methyl}-7-(2-pyrimidinyloxy)-3,4-dihydro-2H-1,3-benzoxazin-2-one], for which, in assay [1], the EC50 fell in the range of 200 to 1000 nM. In addition, in assay [2], the IC50 lay within 5 to 50 nM.

Regarding `CNS(=O)(=O)Nc1cccc(CN2Cc3cc(F)c(OC(=O)N(C)C)cc3OC2=O)c1F` [Compound 120, 6-fluoro-3-(2-fluoro-3-((N-methylsulfamoyl)amino)benzyl)-2-oxo-3,4-dihydro-2H-benzo[e][1,3]oxazin-7-yl dimethylcarbamate], in assay [1], the EC50 fell in the range of 50 to 200 nM. For the same molecule, the IC50 in assay [2] is < 5 nM.

Regarding `CNS(=O)(=O)Nc1cccc(CN2Cc3ccc(OC(=O)N(C)C)cc3OC2=O)c1F` [Compound 156, 3-(2-fluoro-3-((N-methylsulfamoyl)amino)benzyl)-2-oxo-3,4-dihydro-2H-benzo[e][1,3]oxazin-7-yl dimethylcarbamate], the EC50 in assay [1] was 200 to 1000 nM. Further, the IC50 in assay [2] is 5 to 50 nM.

In the case of `CNS(=O)(=O)Nc1cccc(CN2Cc3cc(F)c(OC(=O)N(C)C)c(F)c3OC2=O)c1F` [Compound 96, 6,8-difluoro-3-(2-fluoro-3-((N-methylsulfamoyl)amino)benzyl)-2-oxo-3,4-dihydro-2H-benzo[e][1,3]oxazin-7-yl dimethylcarbamate], in assay [1], the EC50 fell in the range of 50 to 200 nM. In addition, the IC50 in assay [2] is < 5 nM.

With `CNS(=O)(=O)Nc1nccc(CN2C(=O)Oc3cc(Oc4nccnn4)cnc3[C@@H]2C)c1F` (stereo in doubt) [Compound 198, 3-{[3-fluoro-2-(methylaminosulfonylamino)-4-pyridyl]methyl}-4-methyl-7-(1,2,4-triazin-3-yloxy)-3,4-dihydro-2H-1-oxa-3,5-diazanaphthalen-2-one], in assay [1] (60 min), the EC50 is < 50 nM. In addition, in assay [2], the IC50 is 5 to 50 nM.

Consider `O=C1Oc2c(ccc(Oc3ncco3)c2F)C2(CCC2)N1Cc1ccnc(NS(=O)(=O)C2CC2)c1F` [Compound 183, (cyclopropylsulfonyl)[3-fluoro-4-({8-fluoro-7-(1,3-oxazol-2-yloxy)-2-oxo-2H,3H-spiro[1,3-benzoxazine-4,1′-cyclobutan]-3-yl}methyl)-2-pyridyl]amine], for which the EC50 in assay [1] is 200 to 1000 nM. In assay [2], the IC50 fell in the range of 50 to 500 nM.

For the molecule `CNS(=O)(=O)Nc1nccc(CN2C(=O)Oc3cc(Oc4ncco4)cnc3[C@@H]2C)c1F` (stereo in doubt) [Compound 191, 3-{[3-fluoro-2-(methylaminosulfonylamino)-4-pyridyl]methyl}-4-methyl-7-(1,3-oxazol-2-yloxy)-3,4-dihydro-2H-1-oxa-3,5-diazanaphthalen-2-one], in assay [1], the EC50 is 50 to 200 nM. Besides, the IC50 in assay [2] lay in the range of 50 to 500 nM.

For `CNS(=O)(=O)Nc1nccc(CN2C(=O)Oc3cc(Oc4ncco4)cc(F)c3C23COC3)c1F` [Compound 168, 5-fluoro-3-{[3-fluoro-2-(methylaminosulfonylamino)-4-pyridyl]methyl}-7-(1,3-oxazol-2-yloxy)-2H,3H-spiro[1,3-benzoxazine-4,3′-oxetan]-2-one], the EC50 in assay [1] fell in the range of 200 to 1000 nM. Besides, in assay [2], the IC50 lay within 5 to 50 nM.

Take `CNS(=O)(=O)Nc1cccc(CN2C(=O)Oc3c(ccc(Oc4cccnn4)c3F)[C@H]2C)c1F` (single isomer, unassigned) [Compound 36]: the EC50 in assay [1] fell in the range of 50 to 200 nM. Besides, the IC50 in assay [2] was 5 to 50 nM.

On to `C[C@H]1c2c(F)cc(Oc3cccnn3)cc2OC(=O)N1Cc1cccc(NS(=O)(=O)C2CC2)c1F` (single isomer, unassigned) [Compound 55], for which, in assay [1], the EC50 was in the range of 200 to 1000 nM. Moreover, the IC50 in assay [2] is 5 to 50 nM.

In the case of `CNS(=O)(=O)Nc1nccc(CN2C(=O)Oc3cc(Oc4cccnn4)cc(F)c3C23COC3)c1F` [Compound 178, 5-fluoro-3-{[3-fluoro-2-(methylaminosulfonylamino)-4-pyridyl]methyl}-7-(3-pyridazinyloxy)-2H, 3H-spiro[1,3-benzoxazine-4,3′-oxetan]-2-one], the EC50 in assay [1] is 200 to 1000 nM. Moreover, in assay [2], the concentration for half-maximal inhibition (IC50) is 5 to 50 nM.

For the molecule `CNS(=O)(=O)Nc1cccc(CN2C(=O)Oc3c(ccc(OC(=O)N(C)C)c3F)[C@H]2C)c1F` (single isomer, unassigned) [Compound 104, (R)-8-fluoro-3-(2-fluoro-3-((N-methylsulfamoyl)amino)benzyl)-4-methyl-2-oxo-3,4-dihydro-2H-benzo[e][1,3]oxazin-7-yl dimethylcarbamate or (S)-8-fluoro-3-(2-fluoro-3-((N-methylsulfamoyl)amino)benzyl)-4-methyl-2-oxo-3,4-dihydro-2H-benzo[e][1,3]oxazin-7-yl dimethylcarbamate], in assay [1], the EC50 lay in the range of 200 to 1000 nM. Also, in assay [2], the IC50 was 5 to 50 nM.

Consider `CNS(=O)(=O)Nc1nccc(CN2C(=O)Oc3c(ccc(Oc4ncco4)c3F)C23CCC3)c1F` [Compound 173, 8-fluoro-3-{[3-fluoro-2-(methylaminosulfonylamino)-4-pyridyl]methyl}-7-(1,3-oxazol-2-yloxy)-2H,3H-spiro[1,3-benzoxazine-4,1′-cyclobutan]-2-one], for which, in assay [1], the EC50 is < 50 nM. The IC50 in assay [2] is 5 to 50 nM.

For the molecule `O=C1Oc2c(ccc(Oc3nccnn3)c2F)C2(CCC2)N1Cc1ccnc(NS(=O)(=O)C2CC2)c1F` [Compound 187, (cyclopropylsulfonyl)[3-fluoro-4-({8-fluoro-2-oxo-7-(1,2,4-triazin-3-yloxy)-2H,3H-spiro[1,3-benzoxazine-4,1′-cyclobutan]-3-yl}methyl)-2-pyridyl]amine], in assay [1], the EC50 was in the range of 50 to 200 nM. In addition, the IC50 in assay [2] was in the range of 5 to 50 nM.

Source of the values: patent US20260297105A1, “RAF-MEK PROTEIN COMPLEX MODULATORS AND METHODS OF USE THEREOF” (GANDEEVA THERAPEUTICS, INC., priority 2023, published 2026).
